Here are results for 56 molecules from the supplement of paper PMC10702517.

± gives the standard deviation.

The data set is described as follows: chemical recovery from spiked human plasma; higher = better extraction. The conditions noted are these: pooled human plasma.
The mark [1] stands for this setting: extraction method: solvent precipitation (ACN + hexane).
Setting [2] is: extraction method: PES+SPE (3 d PDMS equilibration then HLB SPE).
Where [3] appears, read: extraction method: SPE only (HLB 96-well).
Where [4] appears, read: extraction method: SPE only (HLB 96-well), PES comparison experiment.

Regarding `CC(C)(C)c1cc(CCC(=O)NCCCCCCNC(=O)CCc2cc(C(C)(C)C)c(O)c(C(C)(C)C)c2)cc(C(C)(C)C)c1O` [Irganox-1098], the chemical recovery under setting [1] came out at 55.3 ± 6.4%.

Take `O=C(O)c1cccc(C(=O)O)c1` [Isophthalic-acid]: the chemical recovery under setting [1] worked out at 12.5 ± 5.4%.

For `CC(C)C1C2CCC1c1c(NC(=O)c3cn(C)nc3C(F)F)cccc12` (stereo not given) [Isopyrazam], the chemical recovery came to 56.7 ± 6.3% under setting [2], 42.1 ± 4.9% under setting [3] and 72.1 ± 4.6% under setting [1].

Under setting [4], `CC[C@H](C)[C@H]1O[C@]2(CC[C@@H]1C)C[C@@H]1C[C@@H](C/C=C(\C)[C@@H](O[C@H]3C[C@H](OC)[C@@H](O[C@H]4C[C@H](OC)[C@@H](O)[C@H](C)O4)[C@H](C)O3)[C@@H](C)/C=C/C=C3\CO[C@@H]4[C@H](O)C(C)=C[C@@H](C(=O)O1)[C@]34O)O2` [Ivermectin B1a] registered a chemical recovery of 16.6 ± 4.9%.

In the case of `CC[C@H](C)[C@H]1O[C@]2(CC[C@@H]1C)C[C@@H]1C[C@@H](C/C=C(\C)[C@@H](O[C@H]3C[C@H](OC)[C@@H](O[C@H]4C[C@H](OC)[C@@H](O)[C@H](C)O4)[C@H](C)O3)[C@@H](C)/C=C/C=C3\CO[C@@H]4[C@H](O)C(C)=C[C@@H](C(=O)O1)[C@]34O)O2` [Ivermectin-B1a], the chemical recovery runs as follows: under setting [3], 11.5 ± 2.3%; under setting [1], 30.3 ± 2.3%.

Regarding `CNC1(c2ccccc2Cl)CCCCC1=O` (stereo not given) [Ketamine], the chemical recovery amounted to 10.8 ± 4.5% under setting [2], 32.2 ± 2.1% under setting [3], 45.4 ± 6.8% under setting [4] and 59 ± 2.7% under setting [1].

For `N[C@@H](Cc1cc(I)c(Oc2cc(I)c(O)c(I)c2)c(I)c1)C(=O)O` [L-Thyroxine], the chemical recovery is, setting by setting: under setting [2], 50.6 ± 7.1%; under setting [3], 36.5 ± 3.8%; under setting [1], 30.8 ± 3.3%.

Turning to `CCCCCCCCCCCCOC(=O)c1cc(O)c(O)c(O)c1` [Lauryl-gallate], the chemical recovery under setting [3] stood at 21.9 ± 6.3%.

Take `CC[C@@H](C(N)=O)N1CCCC1=O` [Levetiracetam]: the chemical recovery is, setting by setting: under setting [3], 21.4 ± 8.7%; under setting [1], 78 ± 3.8%.

As to `CCN(CC)CC(=O)Nc1c(C)cccc1C` [Lidocaine], the chemical recovery is 1.08 ± 0.9% under setting [2], 37.5 ± 7.4% under setting [3], 42.3 ± 6.8% under setting [4] and 67.9 ± 4.2% under setting [1].

Take `CCC[C@@H]1C[C@@H](C(=O)N[C@@H]([C@H]2O[C@H](SC)[C@H](O)[C@@H](O)[C@H]2O)[C@@H](C)O)N(C)C1` [Lincomycin]: the chemical recovery turned out to be 42.1 ± 11% under setting [4] and 74.7 ± 4.9% under setting [1].

As to `CON(C)C(=O)Nc1ccc(Cl)c(Cl)c1` [Linuron], the chemical recovery under setting [2] was found to be 46.9 ± 7.1%, the chemical recovery under setting [3] came out at 50.1 ± 0.84%, the chemical recovery under setting [4] was found to be 50.2 ± 7.8% and the chemical recovery under setting [1] came out at 69.6 ± 2.5%.

On to `C[C@@H](O)CCCCn1c(=O)c2c(ncn2C)n(C)c1=O` [Lisofylline], for which the chemical recovery runs as follows: under setting [2], 42.8 ± 3.6%; under setting [3], 35.7 ± 3.2%; under setting [1], 76.1 ± 3.5%.

With `Cc1cc(Cl)ccc1OCCCC(=O)O` [MCPB], the chemical recovery was determined as 44.6 ± 2% under setting [2], 35.9 ± 1.6% under setting [3] and 66.9 ± 4.5% under setting [1].

Take `C#CCOc1ccc(CCNC(=O)C(OCC#C)c2ccc(Cl)cc2)cc1OC` (stereo not given) [Mandipropamid]: the chemical recovery runs as follows: under setting [2], 70.3 ± 10%; under setting [3], 58.4 ± 2.1%; under setting [1], 82.4 ± 3.2%.

With `Nc1nc(N)nc(N)n1` [Melamine], the chemical recovery was found to be 2.47 ± 0.79% under setting [2], 1.58 ± 0.33% under setting [3] and 0.589 ± 1.2% under setting [4].

Regarding `COc1ccc2[nH]cc(CCNC(C)=O)c2c1` [Melatonin], the chemical recovery reads like this: under setting [2], 37.8 ± 2.6%; under setting [3], 41.7 ± 7.2%; under setting [1], 74.6 ± 2.9%.

On to `CC1CCN(CCCC(=O)c2ccc(F)cc2)CC1` [Melperon], for which the chemical recovery runs as follows: under setting [2], 0.434 ± 0.15%; under setting [3], 35.9 ± 3%; under setting [4], 48.8 ± 6.8%; under setting [1], 61 ± 4.4%.

Take `CC#Cc1cc(C)nc(Nc2ccccc2)n1` [Mepanipyrim]: the chemical recovery under setting [1] came to 70.7 ± 2.9%.

`C[N+]1(C)CCCCC1` [Mepiquat]: the chemical recovery by setting is: under setting [2], 0.578 ± 0.063%; under setting [3], 0.813 ± 0.44%; under setting [4], 11.3 ± 9.5%; under setting [1], 108 ± 18%.

As to `COC(=O)c1ccc(CNS(C)(=O)=O)cc1S(=O)(=O)NC(=O)Nc1nc(OC)cc(OC)n1` [Mesosulfuron-methyl], the chemical recovery was 40.3 ± 5.8% under setting [2], 41.4 ± 2.8% under setting [3] and 74.9 ± 5.7% under setting [1].

Regarding `Cc1nnc(-c2ccccc2)c(=O)[nH]1` [Metamitron-desamino], the chemical recovery by setting is: under setting [2], 53 ± 3.3%; under setting [3], 49.5 ± 3.9%; under setting [1], 73.9 ± 3.2%.

As to `Cc1nnc(-c2ccccc2)c(=O)n1N` [Metamitron], the chemical recovery was 53 ± 4.2% under setting [2], 46.3 ± 4.3% under setting [3], 92.5 ± 14% under setting [4] and 70.3 ± 0.41% under setting [1].

Regarding `Cc1cccc(C)c1N(Cn1cccn1)C(=O)CO` [Metazachlor-2-hydroxy], the chemical recovery is 49 ± 6.5% under setting [2], 40.1 ± 3.3% under setting [3] and 73.7 ± 3.7% under setting [1].

As to `C=C(C)C(N)=O` [Methacrylamide], under setting [2], the chemical recovery stood at 0.198 ± 0.34%.

As to `CNC(=O)Oc1cc(C)c(S(C)(=O)=O)c(C)c1` [Methiocarb-sulfone], the chemical recovery by setting is: under setting [2], 0.129 ± 0.019%; under setting [3], 19.9 ± 1.6%.

On to `Cc1cc(O)cc(C)c1[S+](C)[O-]` (stereo not given) [Methiocarb-sulfoxide-phenol], for which the chemical recovery is, setting by setting: under setting [2], 71.6 ± 6.9%; under setting [3], 47.4 ± 5.3%; under setting [1], 73.1 ± 4.4%.

Consider `CNC(=O)Oc1cc(C)c(SC)c(C)c1` [Methiocarb], for which the chemical recovery is, setting by setting: under setting [2], 0.0787 ± 0.035%; under setting [3], 32.8 ± 0.78%; under setting [4], 0.163 ± 0.33%.

In the case of `COc1ccccc1OCC(O)COC(N)=O` (stereo not given) [Methocarbamol], the chemical recovery stood at 40.6 ± 2.7% under setting [2], 36.1 ± 3.5% under setting [3] and 70.6 ± 2% under setting [1].

As to `CNC(=O)O/N=C(\C)SC` [Methomyl], the chemical recovery under setting [2] stood at 50.6 ± 5%, the chemical recovery under setting [3] came out at 47.3 ± 1.8% and the chemical recovery under setting [1] was 75.8 ± 3.8%.

For the molecule `CN(Cc1cnc2nc(N)nc(N)c2n1)c1ccc(C(=O)N[C@@H](CCC(=O)O)C(=O)O)cc1` [Methotrexate], the chemical recovery reads like this: under setting [2], 60.3 ± 4%; under setting [3], 60.1 ± 3.9%; under setting [4], 38.1 ± 4.1%.

As to `COC(=O)CCc1cc(C(C)(C)C)c(O)c(C(C)(C)C)c1` [Methyl-3-(3,5-di-tert-butyl-4-hydroxyphenyl)propionate], the chemical recovery by setting is: under setting [3], 24.9 ± 3.3%; under setting [1], 57.6 ± 7%.

Regarding `Cn1sc(Cl)cc1=O` [Methylchloroisothiazolinone], the chemical recovery is 0.906 ± 0.2% under setting [3], 0.321 ± 0.64% under setting [4] and 0.0132 ± 0.023% under setting [1].

Turning to `CC(C)NCC(O)COc1ccc(CC(=O)O)cc1` (stereo not given) [Metoprolol acid], the chemical recovery under setting [2] stood at 41.1 ± 5%, the chemical recovery under setting [3] stood at 33.5 ± 2.9% and the chemical recovery under setting [1] amounted to 54.1 ± 9.1%.

Turning to `CC(C)NCC(O)COc1ccc(CC(=O)O)cc1` (stereo not given) [Metoprolol-acid], the chemical recovery is, setting by setting: under setting [3], 52.1 ± 13%; under setting [1], 47.1 ± 8.4%.

Turning to `COCCc1ccc(OCC(O)CNC(C)C)cc1` (stereo not given) [Metoprolol], the chemical recovery by setting is: under setting [2], 21.9 ± 2.5%; under setting [3], 36.2 ± 2.6%; under setting [4], 44 ± 5.4%; under setting [1], 75.2 ± 2.3%.

Turning to `COc1cc(C)c(C(=O)c2c(OC)ccc(Br)c2C)c(OC)c1OC` [Metrafenone], the chemical recovery under setting [3] amounted to 50.3 ± 9.1% and the chemical recovery under setting [1] was 76.4 ± 4.6%.

`Cc1ncc([N+](=O)[O-])n1CCO` [Metronidazole]: the chemical recovery runs as follows: under setting [3], 21.2 ± 3.4%; under setting [1], 70.6 ± 4.1%.

With `CN1CCN2c3ncccc3Cc3ccccc3C2C1` (stereo not given) [Mirtazapine], the chemical recovery under setting [2] is 0.274 ± 0.11%, the chemical recovery under setting [3] was 30.4 ± 2.3%, the chemical recovery under setting [4] amounted to 29.9 ± 9.5% and the chemical recovery under setting [1] came to 69.4 ± 3.5%.

`CC(C)COC(=O)c1ccccc1C(=O)O` [Mono-iso-butyl-phthalate]: the chemical recovery runs as follows: under setting [3], 44.7 ± 3.3%; under setting [1], 65.5 ± 6.9%.

For the molecule `O=C(O)c1ccccc1C(=O)OCc1ccccc1` [Monobenzyl-phthalate], the chemical recovery is, setting by setting: under setting [2], 59.6 ± 9.9%; under setting [3], 57.7 ± 4.3%; under setting [1], 65.3 ± 7.2%.

Turning to `CN(C)C(=O)Nc1ccc(Cl)cc1` [Monuron], the chemical recovery reads like this: under setting [2], 60.2 ± 3.6%; under setting [3], 49.6 ± 3.1%; under setting [1], 74.2 ± 1.8%.

As for `COc1c(C(C)(C)C)cc([N+](=O)[O-])c(C)c1[N+](=O)[O-]` [Musk ambrette], the chemical recovery under setting [3] is 2.96 ± 0.74%.

Turning to `CC(=O)c1c(C)c([N+](=O)[O-])c(C(C)(C)C)c([N+](=O)[O-])c1C` [Musk ketone], the chemical recovery reads like this: under setting [3], 1.17 ± 0.25%; under setting [1], 15.5 ± 3.3%.

As for `Cc1c([N+](=O)[O-])c(C)c([N+](=O)[O-])c(C(C)(C)C)c1[N+](=O)[O-]` [Musk xylene], the chemical recovery runs as follows: under setting [3], 97.1 ± 31%; under setting [1], 33.5 ± 9.3%.

With `CCN(CC)c1ccccc1` [N,N-Diethylaniline], the chemical recovery amounted to 0.987 ± 1.6% under setting [2], 5.76 ± 3.4% under setting [3] and 0.0912 ± 0.079% under setting [1].

With `CCCCCCCCCC(=O)N(C)C` [N,N-Dimethyldecan-1-amide], the chemical recovery amounted to 27.7 ± 10% under setting [2] and 13.6 ± 0.95% under setting [3].

Consider `CCCCCCCCCCCCN(C)C` [N,N-Dimethyldodecylamine], for which the chemical recovery runs as follows: under setting [4], 42.1 ± 8.8%; under setting [1], 78.3 ± 23%.

Regarding `CC(C)CC(C)Nc1ccc(Nc2ccccc2)cc1` (stereo not given) [N-(1,3-Dimethylbutyl)-N'-phenyl-1,4-phenylenediamine], the chemical recovery under setting [3] came out at 1.42 ± 1.6%.

For `C=C(C)C(=O)NCCCN(C)C` [N-(3-Dimethylamino)propyl)methacrylamide], the chemical recovery is, setting by setting: under setting [2], 42.3 ± 14%; under setting [3], 39.9 ± 3.7%.

As to `CC(=O)Nc1c(C)n(C)n(-c2ccccc2)c1=O` [N-Acetyl-4-aminoantipyrine], the chemical recovery by setting is: under setting [2], 44.5 ± 5.9%; under setting [3], 43.1 ± 2.7%.

As to `CCNC(=O)c1cccc(C)c1` [N-Ethyl-3-methylbenzamide], the chemical recovery runs as follows: under setting [2], 29.2 ± 9.2%; under setting [3], 37.3 ± 0.9%; under setting [1], 57.5 ± 1%.

With `CCNS(=O)(=O)C(F)(F)C(F)(F)C(F)(F)C(F)(F)C(F)(F)C(F)(F)C(F)(F)C(F)(F)F` [N-Ethylperfluorooctane-sulfonamide], the chemical recovery under setting [3] turned out to be 2.91 ± 0.86%.

Regarding `CCCCCCCCCCCC(=O)NCCO` [N-Lauroylethanolamine], the chemical recovery reads like this: under setting [3], 47.5 ± 6%; under setting [1], 74.2 ± 3.9%.

Regarding `CN1CCCC1=O` [N-Methyl-2-pyrrolidone], the chemical recovery under setting [1] was 1.36 ± 2.4%.

As to `CN(C1CCCCC1)C1CCCCC1` [N-Methyl-dicyclohexylamine], the chemical recovery runs as follows: under setting [2], 0.654 ± 0.19%; under setting [3], 30.9 ± 1.6%; under setting [1], 50.9 ± 7.1%.
